pIC50: −log10 of the molar value. Like-named read-outs stand apart in the source and are kept apart here.
Assays:
[1] = test system: A2780 cells; test: Assay 2: In-Vitro Cell Proliferation Assay (A2780 cells, SRB readout, 72 hours); assay type: cell-based; settings: A2780 cells, 72 hours, SRB, read-out: Cell Proliferation (IC50);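 also: viable cells counted via sulforhodamine B staining, absorbance at 570 nm, after 72 h exposure at 37 °C, DMSO 0.1% as control, media-only background subtracted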
[2] = biological target: NAMPT (Homo sapiens (Human), UniProt P43490); test: Assay 1: Biochemical Inhibition Assay (NAMPT enzymatic reaction, NMN quantified by mass spectrometry); settings: read-out: Biochemical (IC50);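 also: recombinant His-tagged human NAMPT preincubated with compound 15 min, then reacted 30 min at rt with 1 µM NAM, 100 µM PRPP, 2.5 mM ATP, NMN product read by RapidFire MS, normalized to L-Cystathionine internal standard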
NAMPT, sequence (P43490 whole entry): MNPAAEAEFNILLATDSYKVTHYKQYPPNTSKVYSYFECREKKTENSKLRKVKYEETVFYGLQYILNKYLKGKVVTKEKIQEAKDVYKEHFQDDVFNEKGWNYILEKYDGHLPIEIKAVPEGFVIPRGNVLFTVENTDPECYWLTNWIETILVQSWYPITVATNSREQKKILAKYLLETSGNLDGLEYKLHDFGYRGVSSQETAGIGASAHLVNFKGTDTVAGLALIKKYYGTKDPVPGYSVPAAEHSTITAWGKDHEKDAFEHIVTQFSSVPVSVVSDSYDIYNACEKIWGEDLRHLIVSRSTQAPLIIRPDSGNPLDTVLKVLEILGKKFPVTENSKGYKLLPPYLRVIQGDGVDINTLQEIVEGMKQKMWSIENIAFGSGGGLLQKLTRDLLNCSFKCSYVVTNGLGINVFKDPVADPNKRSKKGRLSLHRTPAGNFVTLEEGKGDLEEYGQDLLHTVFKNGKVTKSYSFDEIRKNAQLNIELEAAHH

Row | Compound | pIC50 ([1]; Homo sapiens, A2780, 72 h) | pIC50 [2] | pIC50 [1]
1 | COCCN1CCN(S(=O)(=O)c2ccc(CNC(=O)c3cc4ccncc4o3)cc2)CC1 [Example 298, N-[[4-[4-(2-methoxyethyl)piperazin-1-yl]sulfonylphenyl]methyl]furo [2,3-c]pyridine-2-carboxamide] | 7.61 | 7.04 | –
2 | O=C(NCc1ccc(S(=O)(=O)N2CCC(CO)CC2)cc1)c1cc2ccncc2o1 [Example 299, N-[[4-[[4-(hydroxymethyl)-1-piperidyl]sulfonyl]phenyl]methyl]furo[2,3-c]pyridine-2-carboxamide] | 7.95 | 7.61 | –
3 | O=C(NCc1ccc(S(=O)(=O)N2CCC(F)(F)C2)cc1)c1cc2ccncc2o1 [Example 300, N-[[4-(3,3-difluoropyrrolidin-1-yl)sulfonylphenyl]methyl]furo [2,3-c]pyridine-2-carboxamide] | 7.67 | 7.67 | –
4 | O=C(NCc1ccc(S(=O)(=O)N2CC(F)(F)C2)cc1)c1cc2ccncc2o1 [Example 301, N-[[4-(3,3-difluoroazetidin-1-yl)sulfonylphenyl]methyl]furo [2,3-c]pyridine-2-carboxamide] | 7.08 | 7.33 | –
5 | O=C(NCc1ccc(S(=O)(=O)N2CC3CC2CO3)cc1)c1cc2ccncc2o1 (stereo not drawn) [Example 304, N-[[4-(2-oxa-5-azabicyclo[2.2.1]heptan-5-ylsulfonyl)phenyl]methyl]furo [2,3-c]pyridine-2-carboxamide] | 7.38 | 7.19 | –
6 | O=C(NCc1ccc(S(=O)(=O)N2CC3CCC(C2)O3)cc1)c1cc2ccncc2o1 [Example 305, N-[[4-(8-oxa-3-azabicyclo[3.2.1]octan-3-ylsulfonyl)phenyl]methyl]furo [2,3-c]pyridine-2-carboxamide] | 7.75 | 7.38 | –
7 | CCC(=O)N1CCC(S(=O)(=O)c2ccc(CNC(=O)c3cc4ccncc4o3)cc2)CC1 [Example 312, N-[[4-[(1-propanoyl-4-piperidyl)sulfonyl]phenyl]methyl]furo[2,3-c]pyridine-2-carboxamide] | 7.31 | 6.95 | –
8 | CCCC(=O)N1CCC(S(=O)(=O)c2ccc(CNC(=O)c3cc4ccncc4o3)cc2)CC1 [Example 314, N-[[4-[(1-butanoyl-4-piperidyl)sulfonyl]phenyl]methyl]furo[2,3-c]pyridine-2-carboxamide] | 7.28 | 7.69 | –
9 | O=C(NCc1ccc(S(=O)(=O)N2CCOC3(CCNCC3)C2)cc1)c1ccc2nccn2c1 [Example 319, N-[[4-(1-oxa-4,9-diazaspiro[5.5]undecan-4-ylsulfonyl)phenyl]methyl] imidazo[1,2-a]pyridine-6-carboxamide] | 6.99 | 6.97 | –
10 | O=C(NCc1ccc(S(=O)(=O)N2CCCC3(CCCCN3)C2)cc1)c1ccc2nccn2c1 (stereo not drawn) [Example 326, N-[[4-(1,8-diazaspiro[5.5]undecan-8-ylsulfonyl)phenyl]methyl] imidazo[1,2-a]pyridine-6-carboxamide] | – | 6.97 | 7.22
11 | O=C(NCc1ccc(S(=O)(=O)N2CCOC3CNCC32)cc1)c1ccc2nccn2c1 (stereo not drawn) [Example 327, N-[[4-(3,4a,5,6,7,7a-hexahydro-2H-pyrrolo[3,4-b][1,4]oxazin-4-ylsulfonyl)phenyl]methyl] imidazo[1,2-a]pyridine-6-carboxamide] | 5.70 | 5.89 | –
12 | O=C(NCc1ccc(S(=O)(=O)N2CC3CNCC3C2)cc1)c1ccc2nccn2c1 (stereo not drawn) [Example 329, N-[[4-(2,3,3a,4,6,6a-hexahydro-1H-pyrrolo[3,4-c]pyrrol-5-yIsulfonyl)phenyl]methyl] imidazo[1,2-a]pyridine-6-carboxamide] | 7.03 | 7.10 | –
13 | O=C(NCc1ccc(S(=O)(=O)N2CCCC23CCNCC3)cc1)c1ccc2nccn2c1 [Example 331, N-[[4-(1,8-diazaspiro[4.5]decan-1-ylsulfonyl)phenyl]methyl] imidazo[1,2-a]pyridine-6-carboxamide] | 6.11 | 6.45 | –
14 | O=C(NCc1ccc(S(=O)(=O)N2CC3CCNC3C2)cc1)c1ccc2nccn2c1 (stereo not drawn) [Example 332, N-[[4-(2,3,3a,4,6,6a-hexahydro-1H-pyrrolo[3,4-b]pyrrol-5-ylsulfonyl)phenyl]methyl] imidazo[1,2-a]pyridine-6-carboxamide] | 6.77 | 6.76 | –
15 | O=C(NCc1ccc(S(=O)(=O)N2CC3CNCC(C2)O3)cc1)c1ccc2nccn2c1 [Example 333, N-[[4-(9-oxa-3,7-diazabicyclo[3.3.1]nonan-3-ylsulfonyl)phenyl]methyl] imidazo[1,2-a]pyridine-6-carboxamide] | 6.54 | 6.49 | –
16 | O=C(NCc1ccc(S(=O)(=O)N2CCOC3CNCC32)cc1)c1ccc2nccn2c1 (stereo not drawn) [Example 335, N-[[4-(3,4a,5,6,7,7a-hexahydro-2H-pyrrolo[3,4-b][1,4]oxazin-4-ylsulfonyl)phenyl)methyl] imidazo[1,2-a]pyridine-6-carboxamide] | – | 6.02 | 5.70
17 | O=C(NCc1ccc(S(=O)(=O)N2CCCC3(CCCCN3)C2)cc1)c1ccc2nccn2c1 (stereo not drawn) [Example 336, N-[[4-(1,8-diazaspiro[5.5]undecan-8-ylsulfonyl)phenyl]methyl] imidazo[1,2-a]pyridine-6-carboxamide] | – | 6.42 | 6.40

The remaining compounds from weak to strong by pIC50 [2], led by results:

Row | pIC50 ([1]; Homo sapiens, A2780, 72 h) | pIC50 [2] | pIC50 [1] | Compound
18 | 5.70 | 5.77 | – | NCC12CC(CN1S(=O)(=O)c1ccc(CNC(=O)c3ccc4nccn4c3)cc1)C2 [Example 328, N-[[4-[[4-(aminomethyl)-3-azabicyclo[2.1.1]hexan-3-yl]sulfonyl]phenyl]methyl) imidazo[1,2-a]pyridine-6-carboxamide]
19 | 5.70 | 5.85 | – | O=C(NCc1ccc(S(=O)(=O)N2CCCCC2)cc1)c1ccn2cncc2c1 [Example 308, N-[[4-(1-piperidylsulfonyl)phenyl]methyl]imidazo[1,5-a]pyridine-7-carboxamide]
20 | 7.52 | 7.05 | – | CC(C)N1CCC(S(=O)(=O)c2ccc(CNC(=O)c3ccc4nccn4c3)cc2)CC1 [Example 315, N-[[4-[(1-isopropyl-4-piperidyl)sulfonyl]phenyl]methyl]imidazo[1,2-a]pyridine-6-carboxamide]
21 | 7.58 | 7.05 | – | CC(C)N1CCC(S(=O)(=O)c2ccc(CNC(=O)c3cc4cnccc4[nH]3)cc2)CC1 [Example 340, N-[[4-[(1-isopropyl-4-piperidyl)sulfonyl]phenyl]methyl]-1H-pyrrolo[3,2-c]pyridine-2-carboxamide]
22 | 7.06 | 7.09 | – | NC1CCN(S(=O)(=O)c2ccc(CNC(=O)c3ccc4nccn4c3)cc2)CC1 [Example 317, N-[[4-[(4-amino-1-piperidyl)sulfonyl]phenyl]methyl]imidazo[1,2-a]pyridine-6-carboxamide]
23 | 7.21 | 7.16 | – | NC12CC1CN(S(=O)(=O)c1ccc(CNC(=O)c3ccc4nccn4c3)cc1)C2 (stereo not drawn) [Example 320, N-[[4-[(5-amino-3-azabicyclo[3.1.0]hexan-3-yl)sulfonyl]phenyl]methyl] imidazo[1,2-a]pyridine-6-carboxamide]
24 | 7.27 | 7.19 | – | O=C(NCc1ccc(S(=O)(=O)N2CCC3(CCCN3)CC2)cc1)c1ccc2nccn2c1 [Example 321, N-[[4-(1,8-diazaspiro[4.5]decan-8-ylsulfonyl)phenyl]methyl] imidazo[1,2-a]pyridine-6-carboxamide]
25 | 7.41 | 7.36 | – | O=C(NCc1ccc(S(=O)(=O)N2CCOC3(CCCNC3)C2)cc1)c1ccc2nccn2c1 (stereo not drawn) [Example 322, N-[[4-(1-oxa-4,8-diazaspiro[5.5]undecan-4-ylsulfonyl)phenyl]methyl] imidazo[1,2-a]pyridine-6-carboxamide]
26 | 7.57 | 7.38 | – | O=C(NCc1ccc(S(=O)(=O)N2CC3CCOC3C2)cc1)c1cc2ccncc2o1 (stereo not drawn) [Example 302, N-[[4-(2,3,3a,4,6,6a-hexahydrofuro[2,3-c]pyrrol-5-ylsulfonyl)phenyl]methyl]furo [2,3-c]pyridine-2-carboxamide]
27 | 7.27 | 7.46 | – | CC(C)C(=O)N1CCC(S(=O)(=O)c2ccc(CNC(=O)c3cc4ccncc4o3)cc2)CC1 [Example 313, N-[[4-[[1-(2-methylpropanoyl)-4-piperidyl]sulfonyl]phenyl]methyl]furo[2,3-c]pyridine-2-carboxamide]
28 | 7.59 | 7.57 | – | O=C(NCc1ccc(S(=O)(=O)N2CCCC3(CCCN3)CC2)cc1)c1ccc2nccn2c1 (stereo not drawn) [Example 334, N-[[4-(1,9-diazaspiro[4.6]undecan-9-ylsulfonyl)phenyl]methyl] imidazo[1,2-a]pyridine-6-carboxamide]
29 | 7.56 | 7.59 | – | O=C(NCc1ccc(S(=O)(=O)N2CCC3(CCCNC3)CC2)cc1)c1ccc2nccn2c1 [Example 325, N-[[4-(2,9-diazaspiro[5.5]undecan-9-ylsulfonyl)phenyl]methyl] imidazo[1,2-a]pyridine-6-carboxamide]
30 | 7.81 | 7.64 | – | O=C(NCc1ccc(S(=O)(=O)N2CCC3(CCCO3)C2)cc1)c1cc2ccncc2o1 (stereo not drawn) [Example 303, N-[[4-(1-oxa-7-azaspiro[4.4]nonan-7-ylsulfonyl)phenyl]methyl]furo [2.3-c]pyridine-2-carboxamide]
31 | 7.37 | 7.65 | – | O=C(NCc1ccc(S(=O)(=O)N2CC(C3CCCNC3)c3ccccc32)cc1)c1ccc2nccn2c1 (stereo not drawn) [Example 330, N-[[4-[3-(3-piperidyl)indolin-1-yl]sulfonylphenyl]methyl] imidazo[1,2-a]pyridine-6-carboxamide]
32 | 7.61 | 7.72 | – | O=C(NCc1ccc(S(=O)(=O)N2CCC3(CCNCC3)CC2)cc1)c1ccc2nccn2c1 [Example 324, N-[[4-(3,9-diazaspiro[5.5]undecan-3-ylsulfonyl)phenyl]methyl] imidazo[1,2-a]pyridine-6-carboxamide]
33 | 7.88 | 7.75 | – | NC1CC2(CCN(S(=O)(=O)c3ccc(CNC(=O)c4ccc5nccn5c4)cc3)CC2)C1 [Example 323, N-[[4-[(2-amino-7-azaspiro[3.5]nonan-7-yl)sulfonyl]phenyl]methyl] imidazo[1,2-a]pyridine-6-carboxamide]

— patent US10696692B2, “Amido-benzyl sulfone and sulfoxide derivates” (Forma TM, LLC, priority 2012, dated 2020)
